# Test results from ChEMBL document CHEMBL5500380, “Recent discovery and development of AXL inhibitors as antitumor agents” (Eur J Med Chem, 2024).
# Tests used:
# [1] = biological target: T1, Tyrosine-protein kinase receptor UFO (Homo sapiens, UniProt P30530); experiment: Inhibition of AXL (unknown origin) by HTRF kinase assay
# T1 sequence (P30530 whole entry): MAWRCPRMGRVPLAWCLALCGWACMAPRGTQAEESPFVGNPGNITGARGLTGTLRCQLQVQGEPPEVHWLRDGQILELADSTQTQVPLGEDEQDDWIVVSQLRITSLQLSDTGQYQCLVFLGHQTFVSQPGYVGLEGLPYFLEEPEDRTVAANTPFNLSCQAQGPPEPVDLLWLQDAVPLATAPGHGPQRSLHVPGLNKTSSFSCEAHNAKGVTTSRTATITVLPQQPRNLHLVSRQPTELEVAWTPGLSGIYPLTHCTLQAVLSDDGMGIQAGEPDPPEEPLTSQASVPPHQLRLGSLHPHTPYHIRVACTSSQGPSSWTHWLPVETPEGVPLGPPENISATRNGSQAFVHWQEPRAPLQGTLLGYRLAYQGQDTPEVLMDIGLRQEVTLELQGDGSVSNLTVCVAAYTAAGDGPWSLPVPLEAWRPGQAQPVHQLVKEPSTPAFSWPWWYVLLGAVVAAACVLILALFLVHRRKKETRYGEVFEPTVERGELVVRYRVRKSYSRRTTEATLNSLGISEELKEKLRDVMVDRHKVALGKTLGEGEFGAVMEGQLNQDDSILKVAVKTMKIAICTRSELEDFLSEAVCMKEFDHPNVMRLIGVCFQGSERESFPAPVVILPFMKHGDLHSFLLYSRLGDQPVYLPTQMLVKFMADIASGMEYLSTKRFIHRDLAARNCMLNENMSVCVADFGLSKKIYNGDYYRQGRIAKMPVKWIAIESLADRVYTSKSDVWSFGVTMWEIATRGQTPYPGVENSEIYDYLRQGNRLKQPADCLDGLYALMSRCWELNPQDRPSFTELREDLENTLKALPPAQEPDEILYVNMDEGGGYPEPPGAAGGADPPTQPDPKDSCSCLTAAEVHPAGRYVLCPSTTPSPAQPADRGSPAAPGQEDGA
# [2] = biological target: T1, Tyrosine-protein kinase receptor UFO; experiment: Inhibition of AXL (unknown origin)
# [3] = biological target: T2, Tyrosine-protein kinase receptor TYRO3 (Homo sapiens) (UniProt Q06418); experiment: Inhibition of TYRO3 (unknown origin) at 100 nM relative to control
# T2 sequence (whole entry): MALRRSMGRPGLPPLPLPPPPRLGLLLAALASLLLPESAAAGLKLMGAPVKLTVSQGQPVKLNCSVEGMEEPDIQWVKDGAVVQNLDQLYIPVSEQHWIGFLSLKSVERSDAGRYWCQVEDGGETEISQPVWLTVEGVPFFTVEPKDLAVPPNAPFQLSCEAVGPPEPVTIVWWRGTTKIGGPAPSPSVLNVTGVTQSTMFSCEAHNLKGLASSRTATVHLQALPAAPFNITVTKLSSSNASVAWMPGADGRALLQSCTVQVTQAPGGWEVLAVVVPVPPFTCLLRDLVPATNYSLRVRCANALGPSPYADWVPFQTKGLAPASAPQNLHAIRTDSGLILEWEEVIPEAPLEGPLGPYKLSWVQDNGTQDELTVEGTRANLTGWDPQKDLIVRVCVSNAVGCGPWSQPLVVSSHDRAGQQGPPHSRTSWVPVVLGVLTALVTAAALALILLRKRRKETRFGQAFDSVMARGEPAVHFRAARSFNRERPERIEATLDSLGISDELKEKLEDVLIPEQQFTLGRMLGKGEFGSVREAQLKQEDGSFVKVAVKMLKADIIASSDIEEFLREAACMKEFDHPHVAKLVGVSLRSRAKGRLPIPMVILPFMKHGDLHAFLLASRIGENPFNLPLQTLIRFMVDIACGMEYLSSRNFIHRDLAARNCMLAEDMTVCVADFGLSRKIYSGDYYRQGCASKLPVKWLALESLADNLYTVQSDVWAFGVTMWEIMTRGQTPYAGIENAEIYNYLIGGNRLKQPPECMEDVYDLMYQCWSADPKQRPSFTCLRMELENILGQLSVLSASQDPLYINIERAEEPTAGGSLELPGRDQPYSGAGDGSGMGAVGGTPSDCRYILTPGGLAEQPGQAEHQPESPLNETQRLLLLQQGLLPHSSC
# [4] = biological target: T3, Tyrosine-protein kinase Mer (Homo sapiens) (UniProt Q12866); experiment: Inhibition of MER (unknown origin) at 100 nM relative to control
# T3 sequence (whole entry): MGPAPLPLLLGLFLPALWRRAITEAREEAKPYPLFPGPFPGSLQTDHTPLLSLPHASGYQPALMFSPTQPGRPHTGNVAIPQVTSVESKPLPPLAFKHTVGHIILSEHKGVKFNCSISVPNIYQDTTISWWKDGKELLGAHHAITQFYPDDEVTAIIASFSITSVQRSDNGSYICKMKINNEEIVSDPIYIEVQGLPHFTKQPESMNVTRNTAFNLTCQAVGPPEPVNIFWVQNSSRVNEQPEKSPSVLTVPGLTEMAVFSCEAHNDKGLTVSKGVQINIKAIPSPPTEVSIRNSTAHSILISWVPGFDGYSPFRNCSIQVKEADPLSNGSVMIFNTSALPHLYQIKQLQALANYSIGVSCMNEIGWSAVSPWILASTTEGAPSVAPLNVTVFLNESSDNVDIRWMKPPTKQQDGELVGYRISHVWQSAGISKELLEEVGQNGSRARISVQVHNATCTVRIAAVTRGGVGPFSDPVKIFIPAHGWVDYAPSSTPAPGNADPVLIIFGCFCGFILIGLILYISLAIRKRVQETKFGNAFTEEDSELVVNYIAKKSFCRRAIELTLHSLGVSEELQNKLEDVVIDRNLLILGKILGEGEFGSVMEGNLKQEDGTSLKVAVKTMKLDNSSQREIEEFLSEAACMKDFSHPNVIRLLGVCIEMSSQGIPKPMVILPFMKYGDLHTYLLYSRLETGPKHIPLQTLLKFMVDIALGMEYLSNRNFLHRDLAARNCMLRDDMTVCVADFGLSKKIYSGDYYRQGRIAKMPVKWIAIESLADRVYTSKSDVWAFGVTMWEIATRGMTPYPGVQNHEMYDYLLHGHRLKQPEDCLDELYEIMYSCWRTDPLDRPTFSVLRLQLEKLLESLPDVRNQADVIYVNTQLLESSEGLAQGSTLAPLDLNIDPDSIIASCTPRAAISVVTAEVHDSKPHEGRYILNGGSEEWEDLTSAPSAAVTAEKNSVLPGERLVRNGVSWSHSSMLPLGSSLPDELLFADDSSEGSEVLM
# [5] = biological target: Hepatocyte growth factor receptor (Homo sapiens) (UniProt P08581); experiment: Inhibition of c-MET (unknown origin) at 100 nM relative to control
# Chain of Hepatocyte growth factor receptor (Homo sapiens) (P08581 whole entry, the tested form may be a part): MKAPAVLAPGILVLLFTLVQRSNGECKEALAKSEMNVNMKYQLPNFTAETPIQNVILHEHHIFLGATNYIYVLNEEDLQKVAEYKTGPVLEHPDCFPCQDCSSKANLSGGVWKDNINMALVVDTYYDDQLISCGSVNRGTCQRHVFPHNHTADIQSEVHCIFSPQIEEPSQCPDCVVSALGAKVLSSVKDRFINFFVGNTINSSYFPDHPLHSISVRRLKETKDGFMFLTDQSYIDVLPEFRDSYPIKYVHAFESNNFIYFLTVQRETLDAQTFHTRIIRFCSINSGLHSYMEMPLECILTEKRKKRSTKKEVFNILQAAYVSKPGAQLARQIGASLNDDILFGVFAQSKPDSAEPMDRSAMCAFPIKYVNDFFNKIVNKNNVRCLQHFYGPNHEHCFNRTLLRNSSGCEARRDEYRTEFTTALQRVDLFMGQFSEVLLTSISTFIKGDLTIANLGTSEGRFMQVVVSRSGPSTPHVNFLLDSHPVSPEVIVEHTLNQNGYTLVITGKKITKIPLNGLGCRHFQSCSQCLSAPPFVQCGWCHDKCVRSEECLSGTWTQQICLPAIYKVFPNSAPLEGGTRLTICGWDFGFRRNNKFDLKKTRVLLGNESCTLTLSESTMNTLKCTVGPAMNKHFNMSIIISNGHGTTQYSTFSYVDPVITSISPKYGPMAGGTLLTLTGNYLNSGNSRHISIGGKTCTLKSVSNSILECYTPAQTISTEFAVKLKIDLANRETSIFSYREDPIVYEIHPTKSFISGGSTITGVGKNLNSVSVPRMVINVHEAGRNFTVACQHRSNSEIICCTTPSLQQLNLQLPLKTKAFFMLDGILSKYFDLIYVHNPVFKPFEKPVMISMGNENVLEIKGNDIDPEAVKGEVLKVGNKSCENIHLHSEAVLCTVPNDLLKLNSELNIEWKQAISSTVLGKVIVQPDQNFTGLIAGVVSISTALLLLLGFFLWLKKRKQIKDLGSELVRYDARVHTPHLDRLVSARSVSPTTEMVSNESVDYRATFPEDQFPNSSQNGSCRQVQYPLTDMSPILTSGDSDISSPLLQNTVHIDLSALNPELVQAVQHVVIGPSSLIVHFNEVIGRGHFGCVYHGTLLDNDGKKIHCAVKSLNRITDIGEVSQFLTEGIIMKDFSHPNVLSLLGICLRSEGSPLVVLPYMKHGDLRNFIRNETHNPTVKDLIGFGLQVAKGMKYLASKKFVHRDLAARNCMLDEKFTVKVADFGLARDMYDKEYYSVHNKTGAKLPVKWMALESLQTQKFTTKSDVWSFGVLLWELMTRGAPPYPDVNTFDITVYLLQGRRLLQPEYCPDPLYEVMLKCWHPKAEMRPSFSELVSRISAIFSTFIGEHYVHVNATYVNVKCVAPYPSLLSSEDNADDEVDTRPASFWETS
# [6] = biological target: Epithelial discoidin domain-containing receptor 1 (Homo sapiens, UniProt Q08345); experiment: Inhibition of DDR1 (unknown origin)
# Chain of Epithelial discoidin domain-containing receptor 1 (Q08345 whole entry, the tested form may be a part): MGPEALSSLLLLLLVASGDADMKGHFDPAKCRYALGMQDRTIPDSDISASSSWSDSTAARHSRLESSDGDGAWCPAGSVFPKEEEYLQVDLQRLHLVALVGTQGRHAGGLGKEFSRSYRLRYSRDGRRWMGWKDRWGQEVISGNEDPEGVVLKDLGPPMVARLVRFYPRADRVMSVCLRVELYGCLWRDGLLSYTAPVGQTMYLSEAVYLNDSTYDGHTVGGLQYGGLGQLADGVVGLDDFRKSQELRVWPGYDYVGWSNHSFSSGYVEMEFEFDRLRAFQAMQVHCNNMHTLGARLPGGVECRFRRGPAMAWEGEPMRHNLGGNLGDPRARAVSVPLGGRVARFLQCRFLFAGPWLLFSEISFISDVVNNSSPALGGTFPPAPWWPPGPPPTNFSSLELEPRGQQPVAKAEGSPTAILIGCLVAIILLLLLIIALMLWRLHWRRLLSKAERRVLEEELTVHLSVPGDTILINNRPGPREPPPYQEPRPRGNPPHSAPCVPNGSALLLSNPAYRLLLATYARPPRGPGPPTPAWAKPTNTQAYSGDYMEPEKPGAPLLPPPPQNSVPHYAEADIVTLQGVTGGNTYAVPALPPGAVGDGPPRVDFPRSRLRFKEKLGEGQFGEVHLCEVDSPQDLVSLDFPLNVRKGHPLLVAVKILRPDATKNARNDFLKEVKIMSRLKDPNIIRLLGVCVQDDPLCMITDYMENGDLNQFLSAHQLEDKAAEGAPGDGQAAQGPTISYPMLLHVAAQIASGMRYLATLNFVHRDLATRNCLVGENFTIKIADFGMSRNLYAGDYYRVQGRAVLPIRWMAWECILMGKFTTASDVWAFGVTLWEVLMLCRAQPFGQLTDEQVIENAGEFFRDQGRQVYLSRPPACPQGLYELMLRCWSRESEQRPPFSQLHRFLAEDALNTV
# [7] = biological target: T4, Aurora kinase A (Homo sapiens, UniProt O14965); experiment: Inhibition of AURORA-A (unknown origin)
# T4 sequence (O14965 whole entry): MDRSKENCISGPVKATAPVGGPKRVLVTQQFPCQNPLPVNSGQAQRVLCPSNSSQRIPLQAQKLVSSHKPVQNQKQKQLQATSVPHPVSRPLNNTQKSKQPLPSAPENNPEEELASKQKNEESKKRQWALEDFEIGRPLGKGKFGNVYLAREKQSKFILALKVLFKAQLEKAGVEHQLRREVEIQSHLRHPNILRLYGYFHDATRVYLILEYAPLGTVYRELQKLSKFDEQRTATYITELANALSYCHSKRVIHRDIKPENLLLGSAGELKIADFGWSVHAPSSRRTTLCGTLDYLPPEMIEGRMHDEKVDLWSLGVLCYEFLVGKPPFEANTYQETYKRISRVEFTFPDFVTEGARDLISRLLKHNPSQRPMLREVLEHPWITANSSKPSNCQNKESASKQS
# [8] = biological target: Aurora kinase B (Homo sapiens, UniProt Q96GD4); experiment: Inhibition of AURORA-B (unknown origin)
# Chain of Aurora kinase B (Q96GD4 whole entry): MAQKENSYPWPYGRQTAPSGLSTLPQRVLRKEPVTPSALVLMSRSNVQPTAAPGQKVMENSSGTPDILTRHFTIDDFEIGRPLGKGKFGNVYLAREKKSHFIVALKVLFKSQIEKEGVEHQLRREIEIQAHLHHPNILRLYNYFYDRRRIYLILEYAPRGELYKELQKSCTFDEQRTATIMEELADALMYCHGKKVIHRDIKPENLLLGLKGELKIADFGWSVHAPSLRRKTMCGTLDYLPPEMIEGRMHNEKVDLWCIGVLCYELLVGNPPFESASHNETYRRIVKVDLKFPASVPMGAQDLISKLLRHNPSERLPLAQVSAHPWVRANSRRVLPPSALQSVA
Compound,IC50 [2] [nM],other results
COc1cc2nccc(Oc3ccc(NC(=O)c4cc5c(n(-c6ccccc6)c4=O)CCCC5=O)nc3)c2cc1OC [TAMNORZATINIB],–,IC50 [1]: 0.7 nM
COc1cc2nccc(Oc3ccc(NC(=O)c4c5n(n(-c6cc(F)ccc6F)c4=O)CCCC5)cc3F)c2cc1OC,1.2,–
O=C(Nc1ccc(Oc2ccnc3c2CCN3)c(F)c1)c1c[nH]cc(-c2ccc(F)cc2)c1=O,9,–
COc1cc2nccc(Oc3ccc(NC(=O)c4c5n(n(-c6ccc(F)cc6)c4=O)CCCC5)cc3F)c2cc1OC,3.5,inhibition [3]: 71%; inhibition [4]: 100%; inhibition [5]: 98%
CCc1ccc2c(c1)c(=O)c(C(=O)Nc1ccc(Oc3ccnc4cc(OC)c(OC)cc34)c(F)c1)c(C)n2C,4,IC50 [6]: 22.2 nM; IC50 [7]: 192 nM; IC50 [8]: 114 nM
COc1cc2ncnc(Oc3ccc(NC(=O)c4c5n(n(-c6cccc(F)c6)c4=O)CCCC5)cc3F)c2cc1OC,5.9,–

# The next lines start with results.
IC50 [2] [nM],Compound,other results
2600,CN1CCc2ccc(Nc3ncc(Cl)c(Nc4ccccc4S(=O)(=O)N(C)C)n3)cc2C1,–
19,Nn1cc(-c2n[nH]c3cc(Cl)c(NC4CCNC4)cc23)cn1 (centres undefined),–
